How the values were obtained:
[1] = Octreotide prophylaxis of irinotecan-induced diarrhea in patients receiving irinotecan; type: in vivo; details: octreotide prophylactic treatment before or concurrent with irinotecan; octreotide acetate long-acting release formulation 10, 20 or 30 mg
Procedure: In the prophylaxis of diarrhea according to the invention, octreotide may be administered simultaneously with irinotecan, or the compounds may be administered sequentially, in any desired order. Preferably octreotide is administered some days before the first irinotecan administration and subsequent octreotide administrations are before or simultaneous with irinotecan administration, the time of administration (dosing intervals) of octreotide depending on the preferred irinotecan-scheduled regimen. In a preferred embodiment of the present invention, octreotide acetate long-acting release formulation is administered 10-14 days prior to the first irinotecan dose. For example, when irinotecan is administered in a planned 6-week cycle, wherein irinotecan is given intravenously as a single-agent or in combination with other antineoplastic agents such as, e.g., cisplatin, 5-fluoruracil or others, over 30-90 minutes once weekly for 4 weeks followed by a 2-week rest period, octreotide acetate long-acting release formulation may be administered prior to the first irinotecan dose and again on Day 15 or Day 22 of this 6-week cycle. The octreotide acetate long-acting release formulation dosage is 10 mg, 20 mg or 30 mg at the time of each octreotide administration. […]

[2] = cited from earlier work
[3] = patients who experienced this side-effect during a previous course of chemotherapy; cited from earlier work
[4] = prophylaxis against chemotherapy-induced diarrhea; cited from earlier work
[5] = intensive, immediate application once diarrhea has started; cited from earlier work

**Q.** Which “severity and duration of diarrhea” value [1] does the source give for `C[C@@H](O)[C@@H]1NC(=O)[C@H](CCCCN)NC(=O)[C@@H](Cc2c[nH]c3ccccc23)NC(=O)[C@H](Cc2ccccc2)NC(=O)[C@@H](NC(=O)[C@H](N)Cc2ccccc2)CSSC[C@@H](C(=O)N[C@H](CO)[C@@H](C)O)NC1=O` (relative stereo) [octreotide, L-cysteinamide,D-phenylalanyl-L-cysteinyl-L-phenylalanyl-D-tryptophyl-L-lysyl-L-threonyl-N-[2-hydro-1-hydroxymethyl) propyl]-, cyclic (2→7)-disulfide; [R-(R*,R*)]] here?
**A.** The value was “avoids or remarkably limits the severity and duration of diarrhea in many cases”.

**Q.** What about the “treatment of 5-fluorouracil-induced diarrhea” value ([2]; Meropol et al. 1998) of the same molecule?
**A.** Its value is “successful in the treatment of 5-fluorouracil-induced diarrhea”.

**Q.** And the “efficacy in therapy of 5-fluorouracil-induced diarrhea, compared with loperamide” value ([2]; randomized trial comparing octreotide with loperamide)?
**A.** Its value is “more effective than loperamide”.

**Q.** And the “prevention of diarrhea associated with cisplatin” value [3]?
**A.** Its value is “active in preventing diarrhea”.

**Q.** And the “prevention of diarrhea associated with 5-fluorouracil plus leucovorin” value [4]?
**A.** Its value is “does not prevent diarrhea”.

**Q.** With `CN(C)C(=O)C(CCN1CCC(O)(c2ccc(Cl)cc2)CC1)(c1ccccc1)c1ccccc1` [loperamide] as the molecule, how does the frequency of diarrhea [5] read?
**A.** Its frequency of diarrhea is “had not reduced the frequency of diarrhea”.

**Q.** And the severity of diarrhea [5]?
**A.** Its severity of diarrhea is “often successful in reducing the severity of diarrhea”.
